Test results as given in patent US20040086471A1, “Compositions for darkening the skin and/or hair” (priority 2002, published 2004).

Key:
[1] = test system: skin of Yucatan microswine; experiment: Pigment deposition in swine skin in vivo (F&M histology of biopsies); conditions: for pigment deposition in swine skin (in words): topical, in vivo, histological analysis
Source text: Dark skinned Yucatan microswine (Charles River, Portland, Me.) were housed in appropriately sized cages in an environmentally controlled room with a 12-hour light—12-hour dark photoperiod and supplied with food and water ad libi tum. Twenty μl of test materials were applied topically, twice a day, five days/week, for eight or nine weeks, on the dorsum of the swine. Treatments of individual swine were always arranged in a head to tail order on one side, and in a tail to head order on the other side of the animal. Biopsies were taken using standard techniques.
Swine were treated with either 0.5% w(w/v) of the copper PCA and/or tyrosine or ultraviolet-B radiation (as a positive control). The copper PCA and tyrosine were dissolved in ethanol: propylene glycol 70:30 (v/v). A […] erythema dose (MED) of UVB was determined by placing a plastic template with 1×1 inch^2 cutouts on the dorsum of the swine. Using a UVB lamp (Model UVM-57, 302 nm lamp, UVP Inc., Upland, Calif.) placed on the template, sites were exposed to UVB with increasing time points, every other day for five days. Unexposed sites were covered with the same material as the template. One MED was established as the dose that produces the least amount of visible erythema. Swine were exposed to one MED, once per day, on three alternate days (Mon, Wed, Fri).
Following eight weeks of treatment, skin biopsies were taken using standard methods, for pigment deposition analysis. Sections from the skin biopsies were stained with Hematoxylin and Eosin (H&E), or with Fontana-Mason (F&M), using standard procedures (Sheenan DC, Hrapckak BB, eds., Theory and Practice of Histo-Technology (The C. V. Mosby Co., St. Louis (1980) pp. 223-277). At least three sections per biopsy were processed. Each experiment was repeated at least two times.
Table 4 represents the average value of all sites of responsive swine treated with each test material. The scale for evaluation is defined in Table 3.

[2] = test system: Type IV pigmented epidermal equivalents (human melanocytes and keratinocytes); tyrosinase activity / melanin deposition; experiment: Pigmentation in pigmented epidermal equivalents (DOPA and F&M staining); format: cell-based; conditions: for Overall Score (change of pigmentation by DOPA and F&M staining) / Score DOPA staining (tyrosinase activity) / Score F&M staining (Pigment deposition): 0.1% (w/v) in PBS, treated three or five days, type IV epidermal equivalents
Protocol: Copper PCA (Barnet Products Corp., Englewood cliffs, N.J.) was tested for its ability to induce pigmentation in pigmented epidermal equivalents. The pigmented epidermal equivalents contained human normal melanocytes, together with normal, human-derived epidermal keratinocytes, which have been cultured to form a multi-layered, highly differentiated model of the human epidermis. Type IV pigmented epidermal equivalents (consisting of normal human keratinocytes pooled from variety of phototype skins and normal human melanocytes derived from type IV phototype skin) were treated with test compounds for three or five days and samples were harvested on the fourth or sixth day of the study. The harvested equivalents were stained with DOPA (a substrate for tyrosinase) or with Fontana-Mason (F&M) (Sheenan DC, Hrapckak BB, eds: Theory and practice of Histo-Thchnology (St Louis: CV Mosby, 1980) pp 223-277). F&M staining identifies silver nitrate reducing activity, which, in skin, identifies melanin.
The epidermal equivalents used were SkinEthic® reconstructed human epidermis from SkinEthic™ Laboratory (Nice, France). UV irradiation was performed with a UVB FS light source in an exposure chamber, with plate covers removed and Phosphate-buffered saline (PBS, from Gibco-BRL, Gaithersburg, Md.) present in the lower chamber. UVB intensity was measured with a UVX radiometer (UVP Inc., San Gabriel, Ca.). Equivalents were treated with 0.1-0.12 J/cm2. […] The copper PCA and tyrosine were dissolved in PBS.
On the fourth or sixth day of the study, the equivalents were fixed, sectioned and F&M stained, or they were DOPA stained as whole without sectioning, using standard techniques. At least three sections per equivalent, three equivalents per experiment were processed. Each experiment was repeated three times. DOPA-stained epidermal equivalents were evaluated for the change in tyrosinase activity. F&M-stained histological sections were evaluated for the change in pigment deposition. Due to the low content of melanin within the type IV epidermal equivalent, it was not possible to quantify the level of pigment within melanocytes in F&M stained sections by image analysis. Therefore, the pigment change was evaluated using the scale defined below in Table 1.
Table 2 represents the overall score in change of pigmentation, as evaluated by DOPA and F&M staining, as set forth above, when equivalents were exposed to Copper PCA (0.1% (w/v)) and/or tyrosine (0.1% (w/v)) or UVB irradiation (0.10J/cm^2).

Row | tyrosinase activity in human pigmented epidermal equivalents (in words) ([2]; in vitro) | Structure (SMILES) | Score (pigment deposition, capped epidermal cells) ([1]; 0.5% (w/v) topical, twice a day, five days/week, eight weeks, average of all sites of responsive swine) | pigment deposition in swine skin (in words) [1] | pigment deposition in swine skin (in words) ([1]; listed as copper PCA) | Overall Score (change of pigmentation by DOPA and F&M staining) [2] | Score DOPA staining (tyrosinase activity) [2] | Score F&M staining (Pigment deposition) [2]
1 | significantly increases | O=C1CC[C@@H](C(=O)[O-])N1.O=C1CC[C@@H](C(=O)[O-])N1.[Cu+2] [Copper PCA] | 2-3 | enhanced pigment deposition | significantly increases | 1-2 | 1-2 | 1-2
2 |  | N[C@@H](Cc1ccc(O)cc1)C(=O)O [Tyrosine, tyrosine] |  |  |  | 0-2 | 1-2 | 0-1
